Source: patent US20040177664A1, “Production of a high quality organic-based fertilizer” (priority 2003, published 2004)
Values joined by “and” are separate entries in the source; they are usually repeats but may differ in a detail not shown here. Equal values may be shown once.

Columns and labels:
[1] = Influence of additives on sludge pH; format: physicochemical; details: for sludge pH: 0.5 g of each additive on about 5 g sludge
Experimental: The influence of different additives on the sludge pH was also evaluated.
Influence of Additives on Sludge PH
Treatments with urea, CaSO4, CaO

[2] = Odor reduction of municipal sludge, headspace GC-MS and odor; set-up: reducing odor / Relative reduction of peak area: concentration or dose not given beside the values; details: for reducing odor: oxidizing agents, general statement
Experimental: Effectiveness of the treatments was evaluated through the GC-MS analysis of the treated and untreated sludge. Sludge (5.0 g) was placed into a 44 ml vial. After heating to 60.0° C. for 5.0 minutes a probe of gas was taken from the vial (0.5 ml) and injected into the GC-MS.
Hewlett-Packard (HP) GC 5890 coupled with an HP 5971 mass-spectrometer. The system incorporates an electron beam as an ion source. Ions are filtered through a glass with silver-coated quadruples.
A DB5MS capillary chromatographic column is used and the MS is tuned with PFTBA in a Scan Mode (tune file: BFB.U).
For further characterization the peak area of the 94-ion was selected. The calibration was performed using dimethyldisulfide. A calibration curve is presented in the attached data.
In the first series, 6.00 g (±0.05) of the sludge with the addition of 10.0 ml of distilled water was used. For the treatment, we used potential oxidizers such as KNO3 and H2SO4 in different combinations.
In the second series we used 5.00 g (±0.01) of the sludge with no dilution. For the treatment we used additions of hydrogen peroxide (30%) −0.5 ml, sulfuric acid (98%), −0.5 ml, a combination of hydrogen peroxide and 0.5 ml and sulfuric acid 0. ml, ammonia (54%) −0.5ml, calcium hypochlorite −0.5 g.
The effectiveness of the additions is evaluated through decreasing the area of 94-ion signal with retention time around 1.94 minutes. We also investigated the influence of time.
The samples of the sludge (approximately 5.0 g) were placed into the vials and treated with additions of CaOCl2 at a temperature of 60.0° C.
The reproducibility of the treatment with calcium hypochlorite Ca(OCl)2 (CHC) on sludge was investigated. In all experiments, 5.0 g of sludge in a special vial was treated with an addition of percent of weight of odor reducer (0.05 g). After heating to 60.0° C. for 5.0 minutes, a sample of vapor over the sludge was taken and injected into the GC/MS. Total Ion Chromatograph signal with retention time […] were used for evaluation of the treatment corresponding to dimethylsulfide).

Row | Compound | sludge pH [1] | reducing odor [2] [%] | effect on sludge pH [1] | further results
1 | [O]=[Ca] [CaO, calcium oxide] | 11.5 and 11.65 | – | – | sludge pH ([1]; listed as calcium oxide): 11.8
2 | [Ca+2].[O-]Cl.[O-]Cl [CaOCl2, calcium hypochlorite] | – | 98 | does not affect the sludge pH | Relative reduction of peak area ([2]; against untreated sludge 376025): 97.98% and 96.16% and 98.54% and 96.59% and 98.86% and 99.03% and 99.17% and 99.47%; Average Relative Reduction of the peak area ([2]; eight replicates, confidence interval 95%): 98.23% and 98.23±0.85%
3 | O=S(=O)([O-])[O-].[Ca+2] [CaSO4, Calcium sulfate] | 6.3 and 6.25 | – | does not change the sludge pH | –
4 | NC(N)=O [Urea] | 8.32 and 8.45 | – | – | –
5 | [K+].[O-]Cl [potassium hypochlorite] | – | 98 | – | –
